Results from PMC10426190 (Breast Cancer Research : BCR, 2023).

Test system: E2-induced (ER target) genes in MCF7
Experiment: Gene expression analysis by RNA-sequencing in MCF7 with E2 stimulation
Type: cell-based, human
Conditions: 24 h
Description: MCF7 were cultured in hormone deprivation media (with 10% charcoal-stripped FBS) for at least 3 days before assay. Trypsinized cells were seeded in a 12-well plate, stimulated with 1 nM β-estradiol (E2), and treated with/without 1 μM compounds for 24 h. Total RNA was extracted using the TRIzol reagent according to the manufacturer’s protocol. RNA purity and quantification were evaluated using the NanoDrop 2000 spectrophotometer (Thermo Scientific, USA). RNA integrity was assessed using the Agilent 2100 Bioanalyzer (Agilent Technologies, Santa Clara, CA, USA). Then the libraries were constructed using TruSeq Stranded mRNA LT Sample Prep Kit (Illumina, San Diego, CA, USA) according to the manufacturer’s instructions. The transcriptome sequencing and analysis were conducted by OE Biotech Co., Ltd. (Shanghai, China). The libraries were sequenced on an Illumina HiSeq X Ten platform and 150 bp paired-end reads were generated. […] Raw data (raw reads) of FASTq format were firstly processed using Trimmomatic and the low-quality reads were removed to obtain the clean reads. […] The clean reads were mapped to the human genome (GRCh38) using HISAT2 [27]. FPKM [28] of each gene was calculated using Cufflinks, and the read counts of each gene were obtained by HTSeqcount. Differential expression analysis was performed using the DESeq (2012) R package.
MCF7 with hormone-deprived pre-treatment were administrated ER ligands or not present with 1 nM E2 stimulation for 24 h incubation in a 12-well plate. Total mRNA was isolated from treated cells and sequenced on an Illumina HiSeq X Ten platform. FPKM of each gene was calculated using Cufflinks and Differential expression genes analysis by using the DESeq (2012) R package. […] T47D EFM-19 and HCC1500 cells were grown in RPMI media supplemented with 10% charcoal-stripped FBS for 14 days and then treated with ER antagonist (1 μM) or DMSO in the presence E2 (1nM) stimulation for 24 h before RNA isolation and gene expression analysis as described in methods. […] The uteruses were harvested 24 h after the final doses and stained by toluidine blue. Endometrial height was assessed from the basement membrane to the luminal border (scale bar in green lines: 200 μm), Arrows indicate the uterine epithelium (e).

For `CC/C(=C(\c1ccc(O)cc1)c1ccc(OCCN(C)C)cc1)c1ccccc1` [4-OH-tamoxifen], the “percentage of E2-induced genes suppressed, Relative to 1 nM E2 Down%” value (MCF7, 1 nM E2 + 1 μM compound) was 59.1%, the “percentage of genes upregulated, Relative to 1 nM E2 Up%” value (MCF7, 1 nM E2 + 1 μM compound, foldchange > twofold) was 5.8% and the ACTG2 expression (MCF7, 1 nM E2 ± 1 μM compound) was 2.33 FPKM. The ADCY1 expression (MCF7, 1 nM E2 ± 1 μM compound) was 19.17 FPKM, the AGR3 expression (MCF7, 1 nM E2 ± 1 μM compound) was 25.86 FPKM and the AMZ1 expression (MCF7, 1 nM E2 ± 1 μM compound) was 3.21 FPKM. The ANLN expression (MCF7, 1 nM E2 ± 1 μM compound) was 22.77 FPKM, the ARHGAP36 expression (MCF7, 1 nM E2 ± 1 μM compound) was 1.42 FPKM and the ASCL1 expression (MCF7, 1 nM E2 ± 1 μM compound) was 2.50 FPKM. The ASF1B expression (MCF7, 1 nM E2 ± 1 μM compound) was 33.57 FPKM, the ASMTL-2 expression (MCF7, 1 nM E2 ± 1 μM compound) was 3.33 FPKM and the ATAD2 expression (MCF7, 1 nM E2 ± 1 μM compound) was 29.15 FPKM. It also gave an ATRNL1 expression (MCF7, 1 nM E2 ± 1 μM compound) of 0.29 FPKM, an AURKB expression (MCF7, 1 nM E2 ± 1 μM compound) of 18.53 FPKM and a BIRC5 expression (MCF7, 1 nM E2 ± 1 μM compound) of 26.74 FPKM. It also gave a BLM expression (MCF7, 1 nM E2 ± 1 μM compound) of 3.14 FPKM, a BMPER expression (MCF7, 1 nM E2 ± 1 μM compound) of 0.18 FPKM and a BRCA1 expression (MCF7, 1 nM E2 ± 1 μM compound) of 3.58 FPKM. The BRCA2 expression (MCF7, 1 nM E2 ± 1 μM compound) was 2.51 FPKM, the BRIP1 expression (MCF7, 1 nM E2 ± 1 μM compound) was 22.65 FPKM and the BUB1B expression (MCF7, 1 nM E2 ± 1 μM compound) was 9.15 FPKM. For the same compound, the C1orf226 expression (MCF7, 1 nM E2 ± 1 μM compound) was 5.19 FPKM, the C5AR2 expression (MCF7, 1 nM E2 ± 1 μM compound) was 2.33 FPKM and the CA2 expression (MCF7, 1 nM E2 ± 1 μM compound) was 157.09 FPKM. The CA12 expression (MCF7, 1 nM E2 ± 1 μM compound) was 46.02 FPKM, the CALCR expression (MCF7, 1 nM E2 ± 1 μM compound) was 4.03 FPKM and the CAV1 expression (MCF7, 1 nM E2 ± 1 μM compound) was 5.56 FPKM. The CCN5 expression (MCF7, 1 nM E2 ± 1 μM compound) was 29.67 FPKM, the CCNA2 expression (MCF7, 1 nM E2 ± 1 μM compound) was 17.16 FPKM and the CCNE2 expression (MCF7, 1 nM E2 ± 1 μM compound) was 7.22 FPKM. The CD99-2 expression (MCF7, 1 nM E2 ± 1 μM compound) was 0.97 FPKM, the CDC6 expression (MCF7, 1 nM E2 ± 1 μM compound) was 6.08 FPKM and the CDC25A expression (MCF7, 1 nM E2 ± 1 μM compound) was 2.63 FPKM. The CDC45 expression (MCF7, 1 nM E2 ± 1 μM compound) was 5.79 FPKM, the CDCA3 expression (MCF7, 1 nM E2 ± 1 μM compound) was 6.21 FPKM and the CDCA4 expression (MCF7, 1 nM E2 ± 1 μM compound) was 15.28 FPKM. It also gave a CDCA5 expression (MCF7, 1 nM E2 ± 1 μM compound) of 13.04 FPKM, a CDCA7 expression (MCF7, 1 nM E2 ± 1 μM compound) of 2.77 FPKM and a CDH26 expression (MCF7, 1 nM E2 ± 1 μM compound) of 0.69 FPKM. The CDK1 expression (MCF7, 1 nM E2 ± 1 μM compound) was 15.34 FPKM, the CDT1 expression (MCF7, 1 nM E2 ± 1 μM compound) was 21.06 FPKM and the CENPI expression (MCF7, 1 nM E2 ± 1 μM compound) was 3.21 FPKM. For the same compound, the CENPU expression (MCF7, 1 nM E2 ± 1 μM compound) was 5.41 FPKM, the CHAF1B expression (MCF7, 1 nM E2 ± 1 μM compound) was 2.31 FPKM and the CHEK1 expression (MCF7, 1 nM E2 ± 1 μM compound) was 2.63 FPKM. For the same compound, the CKS1B expression (MCF7, 1 nM E2 ± 1 μM compound) was 49.15 FPKM, the CLSPN expression (MCF7, 1 nM E2 ± 1 μM compound) was 1.96 FPKM and the COL12A1 expression (MCF7, 1 nM E2 ± 1 μM compound) was 3.75 FPKM. The CXCL12 expression (MCF7, 1 nM E2 ± 1 μM compound) was 3.86 FPKM, the DDIAS expression (MCF7, 1 nM E2 ± 1 μM compound) was 4.48 FPKM and the DHRSX-2 expression (MCF7, 1 nM E2 ± 1 μM compound) was 1.54 FPKM. For the same compound, the DKK1 expression (MCF7, 1 nM E2 ± 1 μM compound) was 41.67 FPKM, the DNA2 expression (MCF7, 1 nM E2 ± 1 μM compound) was 3.39 FPKM and the DPYSL5 expression (MCF7, 1 nM E2 ± 1 μM compound) was 0.63 FPKM. It also gave a DSCC1 expression (MCF7, 1 nM E2 ± 1 μM compound) of 4.49 FPKM, a DTL expression (MCF7, 1 nM E2 ± 1 μM compound) of 2.21 FPKM and an E2F1 expression (MCF7, 1 nM E2 ± 1 μM compound) of 8.56 FPKM. It also gave an E2F2 expression (MCF7, 1 nM E2 ± 1 μM compound) of 1.96 FPKM, an E2F7 expression (MCF7, 1 nM E2 ± 1 μM compound) of 3.12 FPKM and an E2F8 expression (MCF7, 1 nM E2 ± 1 μM compound) of 4.23 FPKM. The ELOVL2 expression (MCF7, 1 nM E2 ± 1 μM compound) was 7.72 FPKM, the EME1 expression (MCF7, 1 nM E2 ± 1 μM compound) was 4.92 FPKM and the ERCC6L expression (MCF7, 1 nM E2 ± 1 μM compound) was 1.82 FPKM. The ESCO2 expression (MCF7, 1 nM E2 ± 1 μM compound) was 2.98 FPKM, the ESPL1 expression (MCF7, 1 nM E2 ± 1 μM compound) was 7.94 FPKM and the EXO1 expression (MCF7, 1 nM E2 ± 1 μM compound) was 3.27 FPKM. For the same compound, the FAM20A expression (MCF7, 1 nM E2 ± 1 μM compound) was 2.46 FPKM, the FAM111B expression (MCF7, 1 nM E2 ± 1 μM compound) was 4.32 FPKM and the FANCA expression (MCF7, 1 nM E2 ± 1 μM compound) was 10.70 FPKM. It also gave an FANCD2 expression (MCF7, 1 nM E2 ± 1 μM compound) of 6.23 FPKM, an FANCI expression (MCF7, 1 nM E2 ± 1 μM compound) of 20.35 FPKM and an FEN1 expression (MCF7, 1 nM E2 ± 1 μM compound) of 31.76 FPKM. For the same compound, the FIGNL1 expression (MCF7, 1 nM E2 ± 1 μM compound) was 2.46 FPKM, the FKBP4 expression (MCF7, 1 nM E2 ± 1 μM compound) was 79.90 FPKM and the GATA4 expression (MCF7, 1 nM E2 ± 1 μM compound) was 0.08 FPKM. For the same compound, the GFRA1 expression (MCF7, 1 nM E2 ± 1 μM compound) was 84.37 FPKM, the GINS1 expression (MCF7, 1 nM E2 ± 1 μM compound) was 11.19 FPKM and the GINS2 expression (MCF7, 1 nM E2 ± 1 μM compound) was 12.84 FPKM. The GJA1 expression (MCF7, 1 nM E2 ± 1 μM compound) was 0.31 FPKM, the GLA expression (MCF7, 1 nM E2 ± 1 μM compound) was 41.63 FPKM and the GP1BB expression (MCF7, 1 nM E2 ± 1 μM compound) was 0.99 FPKM. The GPR68 expression (MCF7, 1 nM E2 ± 1 μM compound) was 0.38 FPKM, the GPRIN1 expression (MCF7, 1 nM E2 ± 1 μM compound) was 4.22 FPKM and the GREB1 expression (MCF7, 1 nM E2 ± 1 μM compound) was 4.76 FPKM. The H2AX expression (MCF7, 1 nM E2 ± 1 μM compound) was 94.16 FPKM, the HBB expression (MCF7, 1 nM E2 ± 1 μM compound) was 2.54 FPKM and the HELLS expression (MCF7, 1 nM E2 ± 1 μM compound) was 3.37 FPKM. For the same compound, the HEY2 expression (MCF7, 1 nM E2 ± 1 μM compound) was 1.93 FPKM, the HMGB2 expression (MCF7, 1 nM E2 ± 1 μM compound) was 125.20 FPKM and the IGFBP4 expression (MCF7, 1 nM E2 ± 1 μM compound) was 56.87 FPKM. It also gave an IGSF1 expression (MCF7, 1 nM E2 ± 1 μM compound) of 3.37 FPKM, an ITGA2B expression (MCF7, 1 nM E2 ± 1 μM compound) of 0.44 FPKM and a KIF11 expression (MCF7, 1 nM E2 ± 1 μM compound) of 13.08 FPKM.
